Test results published in publication PMC10974018, “The Development and Characterization of Novel Ionic Liquids Based on Mono- and Dicarboxylates with Meglumine for Drug Solubilizers and Skin Permeation Enhancers” (Pharmaceutics, 2024).

Assays:
[1] = cited from earlier work
[2] = cited from earlier work; remark: listed apart in the source
[3] = Solubility capability of drug-in-IL (organic acid/MGM ionic liquids), confirmed by PXRD; format: physicochemical; settings: for upper limit of drug dissolution in IL: in GA-MGM 1:1, PXRD
Procedure: […] Next, 1, 10, 20… w/w% of each drug and water and ethanol as the solvent was added to the MGM and organic acid solution, and then the preparation was sonicated to be completely dissolved. The resulting solution was evaporated using a thermostat at 65 °C and then vacuum-dried at 40 °C for 24 h.
The solubilization power of ILs is attributed to a range of interactions, such as ionic, van der Waals, π–π, and hydrogen bonding. […] To determine the solubility capability of the ILs, drug-in-IL complexes were prepared. Subsequently, these complexes were analyzed via PXRD to confirm dissolution. PXRD is a technique used to validate the crystalline structure of a drug or excipients in a preparation. The absence of a drug’s crystal form in PXRD indicates the complete solubilization of the drug in the IL.

[4] = as above; format: physicochemical; settings: for upper limit of drug dissolution in IL: PXRD

Compound | Log P [1] | pKa [2] | other results
CC(C)=CCC/C(C)=C/C(=O)O [Geranic acid (GA), Geranic acid] | 3.07 | 5.26 | –
C[C@H](CS)C(=O)N1CCC[C@H]1C(=O)O [Captopril (CPP), Captopril] | – | 3.64 | upper limit of drug dissolution in IL [3]: ≥ 20%; upper limit of drug dissolution in IL ([4]; in AA-MGM 1:2): greater than 10%; upper limit of drug dissolution in IL ([4]; in TA-MGM 1:2): 80%
O=C(O)C(O)C(O)C(=O)O (centres unmarked) [Tartaric acid (TA), Tartaric acid] | −1.8 | – | –
COc1cc(/C=C/C(=O)O)ccc1O [Ferulic acid (FA), Ferulic acid] | – | 4.58 | –
CNC[C@H](O)[C@@H](O)[C@H](O)[C@H](O)CO [Meglumine (MGM), Meglumine] | – | 9.52 | –
O=[N+]([O-])O[C@@H]1CO[C@H]2[C@@H]1OC[C@@H]2O [Isosorbide mononitrate (ISMN), Isosorbide mononitrate] | −0.15 | – | upper limit of drug dissolution in IL [3]: ≥ 20%; dissolution of drug in IL by PXRD (drug-derived crystal peaks) ([4]; 5% and 10% drug in TA-MGM 1:2): cannot be completely dissolved; upper limit of drug dissolution in IL ([4]; in AA-MGM 1:2): greater than 10%
CC1COc2c(N3CCN(C)CC3)c(F)cc3c(=O)c(C(=O)O)cn1c23 (centres unmarked) [Ofloxacin (OFLX), Ofloxacin] | −0.48 | – | pKa1 [2]: 5.97; pKa2 [2]: 9.28
CC(C(=O)O)c1ccc(-c2ccccc2)c(F)c1 (centres unmarked) [Flurbiprofen (FRP), Flurbiprofen] | – | 3.78 | upper limit of drug dissolution in IL [3]: ≥ 20%; upper limit of drug dissolution in IL ([4]; in AA-MGM 1:2): greater than 10%; upper limit of drug dissolution in IL ([4]; in TA-MGM 1:2): 10%
C[C@@H]1O[C@@H](OC[C@H]2O[C@@H](Oc3c(-c4ccc(O)c(O)c4)oc4cc(O)cc(O)c4c3=O)[C@H](O)[C@@H](O)[C@@H]2O)[C@H](O)[C@H](O)[C@H]1O [Rutin] | −1.33 | 6.43 | upper limit of drug dissolution in IL [3]: ≥ 20%; upper limit of drug dissolution in IL ([4]; in AA-MGM 1:2): greater than 10%
CC(C)N(CCC(C(N)=O)(c1ccccc1)c1ccccn1)C(C)C (centres unmarked) [Disopyramide (DPA), Disopyramide] | – | – | solubility in ILs ([3]; all ILs (TA/MGM, AA/MGM, GA/MGM, CPA/MGM)): 100%
Curcumin [Curcumin (CCM)] | – | 8.09 | –
O=C(O)CCCCCCCC(=O)O [Azelaic acid (AA), Azelaic acid] | 1.57 | 4.55 | –
CCOc1ccccc1C(N)=O [Ethenzamide (ETZ), Ethenzamide] | 1.02 | 13.7 | –
COc1ccccc1OCCNCC(O)COc1cccc2[nH]c3ccccc3c12 (centres unmarked) [Carvedilol (CVD), Carvedilol] | 4.19 | – | –
COC1=C(OC)C(=O)C(C/C=C(\C)CC/C=C(\C)CC/C=C(\C)CC/C=C(\C)CC/C=C(\C)CC/C=C(\C)CC/C=C(\C)CC/C=C(\C)CC/C=C(\C)CCC=C(C)C)=C(C)C1=O [Coenzyme Q10 (CoQ10), Coenzyme Q10] | 9.94 | 10.9 | upper limit of drug dissolution in IL ([4]; in AA-MGM 1:2): greater than 10%
Oc1ncnc2[nH]ncc12 [Allopurinol (ALP), Allopurinol] | −1.80 | 9.34 | –
Minoxidil [Minoxidil (MXD)] | 1.24 | 4.61 | –
